In the Deep4Chem optical property database:
Values belong to the compound of their own block, whether it stands above or below them.

Test: photoluminescence quantum yield (fraction); solvent given as SMILES
[1] = in c1cc(-n2c3ccccc3c3ccccc32)cc(-n2c3ccccc3c3ccccc32)c1

SMILES: CCN(CC)c1ccc(/C=C/C2=[O+][B-](F)(F)Oc3c2c(=O)oc2cc(N(CC)CC)ccc32)cc1
photoluminescence quantum yield (in C1CCCCC1): 0.46
photoluminescence quantum yield (in C1COCCO1): 0.72
photoluminescence quantum yield (in CC#N): 0.011
photoluminescence quantum yield (in CC(C)=O): 0.021
photoluminescence quantum yield (in CCO): 0.044
photoluminescence quantum yield (in CCOC(C)=O): 0.16
photoluminescence quantum yield (in CO): 0.016
photoluminescence quantum yield (in CS(C)=O): 0.035
photoluminescence quantum yield (in Cc1ccccc1): 0.93
photoluminescence quantum yield (in ClC(Cl)Cl): 0.75
photoluminescence quantum yield (in ClCCl): 0.16
photoluminescence quantum yield (in OCC(O)CO): 0.36
photoluminescence quantum yield (in OCCO): 0.072

photoluminescence quantum yield (in ClC(Cl)Cl): 0.23
SMILES: COc1ccc2c(C=C(C#N)C#N)cc3ccc4cc(C=C(C#N)C#N)c5ccc(OC)cc5c4c3c2c1

photoluminescence quantum yield (in ClCCl): 0.81
SMILES: COc1ccc(C#Cc2nc(C#Cc3ccc(OC)cc3)c(C#Cc3ccc(OC)cc3)c(C#Cc3ccc(OC)cc3)c2C#Cc2ccc(OC)cc2)cc1

photoluminescence quantum yield (in ClCCl): 0.26
SMILES: CC(C)(C)c1ccc(-c2c3cccc4c(-c5ccccc5)cc5c(-c6ccc(C(C)(C)C)cc6)c6cccc7c(-c8ccccc8)cc2c(c76)c5c43)cc1

photoluminescence quantum yield (in C1CCOC1): 0.51
SMILES: COc1cc2c(cc1-c1ccc(C#N)cc1)Cc1c3c(c4c(c1-2)-c1cc(OC)c(-c2ccc(C#N)cc2)cc1C4)C(=O)N(CCC(C)C)C3=O

photoluminescence quantum yield (in ClCCl): 0.38
SMILES: C[Si]1(C)c2ccc(-c3ccccc3)cc2C=Cc2cc(-c3ccccc3)ccc21

photoluminescence quantum yield (in CC#N): 0.24
SMILES: c1ccc(-c2nc(-c3ccc(-c4cccs4)s3)[nH]c2-c2ccccc2)cc1

photoluminescence quantum yield (in ClC(Cl)Cl): 0.01
SMILES: CC1=C(/C=C/c2ccccc2)C(C)=[N+]2C1=C(c1ccccc1)c1c(C)c(/C=C/c3ccccc3)c(C)n1[B-]2(F)F

photoluminescence quantum yield (in CCCCCC): 0.51
SMILES: CC(C)[Si](C#Cc1c2ccccc2c(C#C[Si](C(C)C)(C(C)C)C(C)C)c2nc3c(ccc4ccccc43)nc12)(C(C)C)C(C)C

SMILES: CCN(CC)c1ccc(-c2cc3c(s2)c(C(=O)OC)cc(=O)n3C)cc1
photoluminescence quantum yield (in C1CCOC1): 0.97
photoluminescence quantum yield (in CC#N): 0.08
photoluminescence quantum yield (in CCO): 0.04
photoluminescence quantum yield (in CN(C)C=O): 0.16
photoluminescence quantum yield (in CS(C)=O): 0.1
photoluminescence quantum yield (in Cc1ccccc1): 0.98
photoluminescence quantum yield (in ClC(Cl)Cl): 0.99
photoluminescence quantum yield (in ClCCl): 0.91

SMILES: c1ccc(-c2ccc(-c3ccc(-n4c5ccccc5c5ccccc54)cc3)c3nsnc23)cc1
photoluminescence quantum yield (in C1CCOC1): 0.426
photoluminescence quantum yield (in CC(C)=O): 0.059
photoluminescence quantum yield (in CCCCCC): 0.697
photoluminescence quantum yield (in CCOCC): 0.599

photoluminescence quantum yield (in CCCCC(CC)n1c2ccc(-n3c4ccccc4c4ccccc43)cc2c2cc(-n3c4ccccc4c4ccccc43)ccc21): 0.208
photoluminescence quantum yield [1]: 0.321
SMILES: O=S(=O)(c1cccc(N2c3ccccc3Oc3ccccc32)c1)c1cccc(N2c3ccccc3Oc3ccccc32)c1

photoluminescence quantum yield (in ClCCl): 0.18
SMILES: CCCCCCN1C(=O)c2cccc3c(-c4ccc(-c5cc(-c6ccc(C)cc6)nn5-c5ccccc5)s4)ccc(c23)C1=O

SMILES: CCCCCCCCCCCCn1cccc1/C=C/c1ccc(OCCCC)c2c(/C=C/c3cccn3CCCCCCCCCCCC)ccc(OCCCC)c12
photoluminescence quantum yield (in Cc1ccccc1): 0.35

photoluminescence quantum yield (in ClC(Cl)Cl): 0.161
SMILES: CCC[Si](CCC)(CCC)c1cc2ccc3cccc4ccc(c1C(=O)NC(C)(C)C)c2c34

photoluminescence quantum yield (in CC#N): 0.45
SMILES: CCOC(=O)c1c2c3c(ccc(Cl)c3c3cc4c(cc13)[Si](C)(C)O[Si]4(C)C)N(C)C2=O

photoluminescence quantum yield (in CCO): 0.017
photoluminescence quantum yield (in CO): 0.011
photoluminescence quantum yield (in O): 0.0073
photoluminescence quantum yield (in OCC(F)(F)F): 0.014
photoluminescence quantum yield (in OCCO): 0.039
SMILES: NC(=O)CC[C@H](/[NH+]=C\C=C1\C=C(C(=O)O)N[C@H](C(=O)O)C1)C(=O)O

photoluminescence quantum yield (in O): 0
SMILES: Cn1c(=O)c2c(ncn2C)n(C)c1=O

photoluminescence quantum yield (in CN(C)C=O): 0.11
SMILES: CCOC(=O)C(Cc1ccc(O[Si]2(Oc3ccc(CC(NC(C)=O)C(=O)OCC)cc3)n3c4c5ccccc5c3/N=C3N=C(/N=c5/c6ccccc6/c(n52)=N/C2=NC(=N\4)/c4ccccc42)c2ccccc2\3)cc1)NC(C)=O (centres undefined)

SMILES: C(=C\N1CCCC1)/c1nc2ccccc2nc1-c1ccccc1
photoluminescence quantum yield (in C1CCCCC1): 0.186
photoluminescence quantum yield (in C1CCOC1): 0.445
photoluminescence quantum yield (in CC#N): 0.199
photoluminescence quantum yield (in CC(C)=O): 0.284
photoluminescence quantum yield (in CCO): 0.023
photoluminescence quantum yield (in CO): 0.006
photoluminescence quantum yield (in CS(C)=O): 0.112
photoluminescence quantum yield (in Cc1ccccc1): 0.49
photoluminescence quantum yield (in ClCCl): 0.598

photoluminescence quantum yield (in CCO): 0.123
photoluminescence quantum yield (in ClCCl): 0.164
photoluminescence quantum yield (in O): 0.02
SMILES: O=Cc1ccc(-c2cccc(-c3nc4ccccc4s3)c2O)s1

photoluminescence quantum yield (in CC1CCCCC1): 0.11
photoluminescence quantum yield (in CC#N): 0.43
photoluminescence quantum yield (in CO): 0.08
SMILES: CCN(CC)c1ccc(-c2nc3cc(C(NC(=O)OC(C)(C)C)C(=O)OC)ccc3o2)c(O)c1 (centres undefined)

SMILES: Cc1ccc2c(c1)C1(c3ccccc3Oc3ccccc31)c1cc(C)ccc1N2c1ccc(-c2nc(-c3ccccc3)cc(-c3ccccc3)n2)cc1
photoluminescence quantum yield (in O=P(c1ccccc1)(c1ccccc1)c1ccc2oc3ccc(P(=O)(c4ccccc4)c4ccccc4)cc3c2c1): 0.69

photoluminescence quantum yield (in CCCCCC): 0.52
photoluminescence quantum yield (in CO): 0.56
photoluminescence quantum yield (in ClCCl): 0.4
SMILES: Cc1ccc2ccc3c(C)ccc4ccc1c2c43

SMILES: Cc1cc(C)c(B(c2c(C)cc(C)cc2C)c2c(C)cc(-n3c4ccc(N(c5ccccc5)c5ccccc5)cc4c4cc(N(c5ccccc5)c5ccccc5)ccc43)cc2C)c(C)c1
photoluminescence quantum yield (in Cc1ccccc1): 0.84
photoluminescence quantum yield (in O=P(c1ccccc1)(c1ccccc1)c1ccccc1Oc1ccccc1P(=O)(c1ccccc1)c1ccccc1): 1

SMILES: CC1=CC(C)=[N+]2C1=C(c1c3ccccc3c(C)c3ccccc13)c1c(C)cc(C)n1[B-]2(F)F
photoluminescence quantum yield (in CC#N): 0.002
photoluminescence quantum yield (in CCCCCC): 0.91
photoluminescence quantum yield (in CCO): 0.005
photoluminescence quantum yield (in CN(C)C=O): 0.003
photoluminescence quantum yield (in Cc1ccccc1): 0.95
photoluminescence quantum yield (in ClCCl): 0.011

photoluminescence quantum yield (in ClCCl): 0.25
SMILES: O=P1(c2ccccc2)c2cccc3c4ccccc4c4ccc1n4c23 (centres undefined)

SMILES: COc1ccccc1-c1nc2c3ccccc3c3ccccc3c2o1
photoluminescence quantum yield (in Cc1ccccc1): 0.53

photoluminescence quantum yield (in C1CCOC1): 0.006
photoluminescence quantum yield (in CC#N): 0.0022
photoluminescence quantum yield (in CS(C)=O): 0.0013
photoluminescence quantum yield (in ClC(Cl)Cl): 0.013
SMILES: O=c1oc2ccccc2cc1-c1ccc([N+](=O)[O-])cc1

SMILES: Cc1cc(C)c(-c2nnc(-c3ccc(-n4c5ccccc5c5ccccc54)cc3)o2)c(C)c1
photoluminescence quantum yield (in Cc1ccccc1): 0.59

SMILES: c1ccc(-c2nnc(-c3ccc(N4c5ccccc5N(c5ccccc5)c5ccccc54)cc3)o2)cc1
photoluminescence quantum yield (in Cc1ccccc1): 0.12
photoluminescence quantum yield [1]: 0.45

photoluminescence quantum yield (in ClC(Cl)Cl): 0.12
photoluminescence quantum yield (in ClCCl): 0.12
SMILES: COc1ccc2cc(C3=[N+]4C(=Nc5c(-c6ccccc6)cc(-c6ccc7cc(OC)ccc7c6)n5[B-]4(F)F)C(c4ccccc4)=C3Br)ccc2c1

SMILES: COc1ccc(-c2cc(C)nc(-c3ccc(-n4c5ccccc5c5ccccc54)cc3)n2)cc1
photoluminescence quantum yield (in C1CCOC1): 0.47
photoluminescence quantum yield (in CN(C)C=O): 0.66
photoluminescence quantum yield (in Cc1ccccc1): 0.34
photoluminescence quantum yield (in ClC(Cl)Cl): 0.68

SMILES: c1ccc2c(c1)c1ccccc1n2-c1ccc(-c2ccc(-n3c4ccccc4c4ccccc43)nc2-n2c3ccccc3c3ccccc32)nn1
photoluminescence quantum yield (in Cc1ccccc1): 0.35

photoluminescence quantum yield (in CO): 0.58
photoluminescence quantum yield (in O): 0.36
SMILES: CC1(C)C2=[N+](CCCCCC(=O)NCCCNC(=O)CCCCCN3/C(=C/C=C/C=C/C=C/2)C(C)(C)c2cc(S(=O)(=O)[O-])ccc23)c2ccc(S(=O)(=O)[O-])cc21

photoluminescence quantum yield (in C1CCOC1): 0.072
SMILES: CC(C)(C)c1ccc(-c2c(-c3cccc(N(c4ccccc4)c4ccccc4)c3)c(C#N)c(-c3cccc(N(c4ccccc4)c4ccccc4)c3)c(-c3ccc(C(C)(C)C)cc3)c2-c2ccc(C(C)(C)C)cc2)cc1

SMILES: CCCCCCN(CCCCCC)c1ccc(C#Cc2ccc(C#Cc3ccc(-c4ccc(C#Cc5ccc(C#Cc6ccc(N(CCCCCC)CCCCCC)cc6)cc5)cc4)cc3)cc2)cc1
photoluminescence quantum yield (in Cc1ccccc1): 0.82

photoluminescence quantum yield (in C1CCOC1): 0.35
SMILES: CC(C)(C)[Si](C)(C)C#CC1=CC2=c3cc(C#C[Si](C)(C)C(C)(C)C)c4nc(C(F)(F)C(F)(F)C(F)(F)F)nc5c(C#C[Si](C)(C)C(C)(C)C)cc(c3c54)C3=CC(C#C[Si](C)(C)C(C)(C)C)=C4N=C(C(F)(F)C(F)(F)C(F)(F)F)N=C1C4C32 (centres undefined)

photoluminescence quantum yield (in CCO): 0.88
SMILES: CC(NC(=O)OC(C)(C)C)C(=O)OCc1ccc2c3cccc4cccc(c5cccc1c52)c43 (centres undefined)

SMILES: Cc1ccc(N2C(c3ccccc3NS(=O)(=O)c3ccc(C)cc3)=NC(c3ccccc3)C2c2ccccc2)cc1 (centres undefined)
photoluminescence quantum yield (in Cc1ccccc1): 0.004

SMILES: N#Cc1ccc(-c2ccc3c(c2)c2cc(-c4ccc(C#N)cc4)ccc2c2c3nc(-c3ccc(N(c4ccccc4)c4ccccc4)cc3)n2-c2ccccc2)cc1
photoluminescence quantum yield (in C1CCOC1): 0.42
photoluminescence quantum yield (in CC#N): 0.23
photoluminescence quantum yield (in CCCCCC): 0.9
photoluminescence quantum yield (in CCOCC): 0.59

photoluminescence quantum yield (in ClCCl): 0.0078
SMILES: CC1=C(c2ccc(N(c3ccccc3)c3ccccc3)cc2)C(C)=[N+]2C1=C(c1c(-c3ccccn3)nc3ccccn13)c1c(C)c(-c3ccc(N(c4ccccc4)c4ccccc4)cc3)c(C)n1[B-]2(F)F

photoluminescence quantum yield (in ClCCl): 0.01
SMILES: CC(=O)c1ccc(C#Cc2ccc3c(N(C)C)cc(-c4ccccc4)cc3c2)cc1

SMILES: Cc1ccc(N2C(c3ccccc3N(C)C)=NC(c3ccccc3)C2c2ccccc2)cc1 (centres undefined)
photoluminescence quantum yield (in Cc1ccccc1): 0.275

photoluminescence quantum yield (in CCCCCC): 0.466
photoluminescence quantum yield (in CO): 0.199
photoluminescence quantum yield (in ClCCl): 0.646
SMILES: Nc1ccc(C#Cc2ccc3ccc4ccc(C#Cc5ccc(N)cc5)c5ccc2c3c45)cc1

SMILES: CC1(C)c2ccccc2N(c2ccc(-c3ccc(C#N)nc3)cc2)c2ccccc21
photoluminescence quantum yield (in Cc1ccccc1): 0.345
photoluminescence quantum yield (in N#Cc1ccc2c(c1)c1ccccc1n2-c1cccc(-n2c3ccccc3c3ccccc32)c1): 0.916

photoluminescence quantum yield (in ClCCl): 0.23
SMILES: COc1ccc(N2c3sc4ccccc4c3Sc3c2sc2ccccc32)cc1

photoluminescence quantum yield (in O): 0.001
SMILES: Cc1ccc(N(C)C)cc1C1=C2C=CC(=[N+](C)C)C=C2[Si](C)(C)c2cc(N(C)C)ccc21

SMILES: CCCCCCCCCCCCC(CCCCCCCCCC)Cn1c2cc(/C=C/C=C(C#N)C#N)c3cccc4c5cccc6c(/C=C/C=C(C#N)C#N)cc1c(c65)c2c34 (centres undefined)
photoluminescence quantum yield (in C1CCCCC1): 0.044
photoluminescence quantum yield (in CC#N): 0.061
photoluminescence quantum yield (in Cc1ccccc1): 0.073
photoluminescence quantum yield (in ClCCl): 0.067
